Columns and labels:
[1] = Stability in the stomach: hydrolysis rate at pH 2.0; format: physicochemical; settings: 1% solution, 10 mmol/L hydrochloric acid, pH 2.0, 37° C.
Procedure: The stability of a substance in the gastric passage can be simulated by determining the hydrolysis rate at pH 2.0. Sucrose and 1-kestose are used as controls.
In each case a 1% solution of the trisaccharides (DP 3) from Example 4 is incubated with 10 mmol/L hydrochloric acid, pH 2.0 at 37° C. for 3 h. Samples are taken from the reaction mixture after 60, 120 and 180 min and are analyzed by basic anion exchange chromatography, HPAEC.

[2] = tested on: pancreatin enzyme (Sigma); assay: Stability with respect to pancreatic enzymes; format: in vitro ADME; settings: 1% solution, 0.2% pancreatin, pH 7.0, 210 min at 37° C.
Procedure: The pancreatic secretion contains a large number of hydrolases, including carbohydrate-degrading enzymes like α-amylase, which breaks down α-1,4-glucans (starch, glycogen) preferably to maltose and maltooligosaccharides. The test of the stability of saccharides with respect to pancreatic enzymes is carried out as follows.
3.0 mL of a carbohydrate solution (solution 2 to solution 6) is mixed with 0.1 mL of the enzyme solution (solution 7) per batch:
Solution 1: 20 mmol/L Na phosphate buffer, pH 7.0, with 6 mmol/L NaCl
Solution 2: 1% solution of β-1,4-galactosyl isomalt mixture in accordance with the invention, prepared according to Example 2 and Example 4, in solution 1
Solution 3: 1% solution of β-1,3-galactosyl isomalt mixture in accordance with the invention, prepared according to Example 1 and Example 4, in solution 1
Solution 4: 1% solution of β-1,6-galactosyl isomalt mixture in accordance with the invention; prepared according to Example 3 and Example 4, in solution 1
Solution 6: 1% starch solution (soluble starch, according to Zulkowski), in solution 1
Solution 7: 0.2% pancreatin enzyme (Sigma), dissolved in solution 1
After 210 min incubation in a thermomixer (interval shaking) at 37° C., the reaction is stopped by heating to 95° C. for 15 min and the samples are analyzed by HPAEC. The starch-containing sample (solution6+solution 7) is completely hydrolyzed before the HPAEC analysis by heating for 3 h in 1 mol/L hydrochloric acid at 95° C., and the glucose resulting from this is determined in order to calculate the starch content of the sample.

lactase = assay: Stability with respect to lactase; format: in vitro ADME; settings: 0.9 unit lactase, 1% solution, 37° C., 6 h
From the text: The enzyme lactase that is present at the mucosa in the small intestine serves in vivo to break down lactose that gets into the small intestine and the resulting monosaccharides are absorbed into the bloodstream through the intestinal wall.
The enzyme lactase is isolated in a modified method of Wallenfels, K., and Fischer, J. (Z. Physiologische Chemie 321 (1960) 223).
Solutions 1-5: see Example 8c)
Solution 6: 1% solution of lactose in solution 1
Solution 7: 1% solution of isomalt in solution 1
Solution 8: Lactase in solution 1
(solutions 2-7), mixed and incubated at 37° C. The reaction is stopped after 6 h by heating to 95° C. for 15 min.

human feces = assay: In vitro fermentation in human feces; format: cell-based; settings: for Degradation rate: 0.5% (w/v) substrate, feces suspension, anaerobic, 37° C.
Procedure: Incubation of carbohydrates with human feces allows statements to be made about the rate of metabolization by the bacterial population and formation of the short-chain fatty acid butyric acid.
To invest the fermentability in an in vitro fermentation experiment, Raftilose® P95 (fructooligosaccharides, DP4-5), galactosyl lactose (Oligomate DP 3) and lactosucrose were used for comparison as carbohydrates of similar structure and degree of polymerization, in addition to β-galactosyl isomalts.
An anaerobic medium of the following composition was used for the in vitro experiments:
9 mL of the anaerobic medium 1 described above are mixed with 0.5% (w/v) of the galactosyl isomalts to be tested (prepared according to Examples 1-3) and the corresponding controls lactosucrose and galactosyl lactose and then inoculated with 1 mL of a 10% feces suspension (mixed feces from two subjects) in anaerobic 50 mmol/L phosphate buffer, pH 7.0, to which 0.5 g/L cysteine/HCl was added beforehand as reducing agent.
The batches are then incubated in “Hungate” test tubes for a maximum of 28 h while shaking at 37° C. Samples are taken at various times and tested for content of residual oligosaccharides, short-chain fatty acids, lactic acid and pH.

B. bifidum DSM 20082 = assay: Fermentation by human bifidobacteria; format: cell-based; design: key: −: no decomposition; +: decomposition and metabolization of galactose from β-1,3-galactosyl isomalt; ++: decomposition and metabolization of galactose and glucose from β-1,3-galactosyl isomalt; +++: complete decomposition of β-1,3-galcatosyl isomalt; settings: medium 2, 48 h
Procedure: (§1) To investigate the prebiotic and bifidogenic properties of galactosyl isomalt, the growth of various human bifidobacteria was investigated on this substrate in vitro. An anaerobic medium of the following composition was used:
(§2) 22 strains of human bifidobacteria were first precultured in “Hungate” test tubes on the above medium 1, in which the source of carbohydrate had first been replaced by glucose (10 g/L). The strains were then inoculated onto medium 2, incubated for 48 h, and then the optical density (E578), the pH, the formation of acetate and lactate and the decrease of the β-1,3-galactosyl isomalt concentration were determined.
(§3) Various decomposition paths are distinguished with regard to the metabolization of galactosyl isomalt. Some strains degrade galactose from the substrate with a β-galactosidase and metabolize this monosaccharide (+).
(§4) Other strains additionally degrade glucose from the resulting isomalt, in addition to galactose, metabolize both monosaccharides, while this is not true for the resulting mannitol or sorbitol (++). The third group is capable of utilizing galactosyl isomalt as a substrate and also metabolizing mannitol and sorbitol (+++).

B. gallicum DSM 20093 = assay: Fermentation by human bifidobacteria; format: cell-based; design: key: −: no decomposition; +: decomposition and metabolization of galactose from β-1,3-galactosyl isomalt; ++: decomposition and metabolization of galactose and glucose from β-1,3-galactosyl isomalt; +++: complete decomposition of β-1,3-galcatosyl isomalt; settings: medium 2, 48 h
Procedure: as §1, §2, §3, §4

B. infantis DSM 20090 = assay: Fermentation by human bifidobacteria; format: cell-based; design: key: −: no decomposition; +: decomposition and metabolization of galactose from β-1,3-galactosyl isomalt; ++: decomposition and metabolization of galactose and glucose from β-1,3-galactosyl isomalt; +++: complete decomposition of β-1,3-galcatosyl isomalt; settings: medium 2, 48 h
Procedure: as §1, §2, §3, §4

B. longum DSM 20097 = assay: Fermentation by human bifidobacteria; format: cell-based; design: key: −: no decomposition; +: decomposition and metabolization of galactose from β-1,3-galactosyl isomalt; ++: decomposition and metabolization of galactose and glucose from β-1,3-galactosyl isomalt; +++: complete decomposition of β-1,3-galcatosyl isomalt; settings: medium 2, 48 h
Procedure: as §1, §2, §3, §4

[3] = tested on: B. pseudocatenulatum DSM 20439; assay: Fermentation by human bifidobacteria; format: cell-based; design: key: −: no decomposition; +: decomposition and metabolization of galactose from β-1,3-galactosyl isomalt; ++: decomposition and metabolization of galactose and glucose from β-1,3-galactosyl isomalt; +++: complete decomposition of β-1,3-galcatosyl isomalt; settings: medium 2, 48 h
Procedure: as §1, §2, §3, §4

OCC1O[C@H](OC[C@@H](O)[C@@H](O)[C@H](O)C(O)CO)C(O)C(O[C@@H]2OC(CO)[C@H](O)C(O)C2O)[C@@H]1O (mixture of isomers) [β-1,3-Galactosyl isomalt, β-D-galactosyl-(1→3)-α-D-glucosyl-(1→6)-D-sorbitol(β-1,3-galactosyl-1,6-GPS) and β-D-galactosyl-(1→3)-α-D-glucosyl-(1→1)-D-mannitol(β-1,3-galactosyl-1,1-GPM)]
Hydrolysis rate [%] ([1]; incubation time 0 min): 0%
Hydrolysis rate [%] ([1]; incubation time 60 min): 0%
Hydrolysis rate [%] ([1]; incubation time 120 min): 0%
Hydrolysis rate [%] ([1]; incubation time 180 min): <1%
Decomposition rate [%] [2]: <1%
Hydrolysis rate [%], incubation with lactase (lactase): 4.8%
Butyrate content (end sample) (human feces; end of fermentation with human feces): 13.3 mmol/L
Degradation rate (human feces; incubation time 7 (h)): 62%
Degradation rate (human feces; incubation time 22 (h)): 93.6%
Degradation rate (human feces; incubation time 28 (h)): 97%
Growth on β-1,3-galactosyl isomalt (B. bifidum DSM 20082): +
Growth on β-1,3-galactosyl isomalt (B. gallicum DSM 20093): −
Growth on β-1,3-galactosyl isomalt (B. infantis DSM 20090): ++
Growth on β-1,3-galactosyl isomalt (B. longum DSM 20097): ++
Growth on β-1,3-galactosyl isomalt [3]: ++
